Structures are written as SMILES.

Assay [1] concerns mixed cultures of neurons/glia. Kind of assay: Lactate dehydrogenase (LDH) release assay of cell death after oxygen and glucose deprivation (OGD). It is filed as cell-based, rat. As to conditions: 100 μM, added 60 min before, during and after 90 min OGD; read 3 hours 30 minutes after OGD; FIG. 1. On the procedure: Mixed cultures of neurons/glia of 18-day rat fetal embryos Sprague-Dawley were prepared as described in Petegnief, V. Saura, J. De Gregorio-Rocasolano, N., and Paul, S. M. (2001) Neuroscience 104, 223-234. The cells were suspended in minimum essential medium (MEM) supplemented by 10% fetal bovine serum and 100 μg/ml gentamicin and placed on 24-well plates previously covered with poly-L-lysine (5 μg/ml) (Nunc, Roskilde, Denmark) with a density of 0.6×10^6 cells/well and cultured at 37° C. in an incubator with 95% atmospheric air/5% CO2. The in vitro medium was partially changed on days 4, 7 and 10 (DIV) with MEM supplemented with B27. The cultures were used in 11/13 DIV. 11.9 mM uric acid was prepared in 1.35 mM lithium carbonate and 5% mannitol. […]
For the lactate dehydrogenase activity assay, cell death was estimated 3 hours 30 minutes after OGD and next lactate dehydrogenase (LDH) activity was measured released in the medium according to a modification of the method of (Wroblewski and LaDue, […]). The reduction of absorbance in 0.75 NADH to 340 nm was followed by a phosphate buffer ([…], pH 7.4) in presence of 4.2 mM pyruvic acid as substrate.

A further assay has as its system focal cerebral ischemia. The settings on record: adult rat; UA given 2 hours before occlusion of the middle cerebral artery or 1 hour after reperfusion; cited from earlier work.

For `O=c1[nH]c(=O)c2[nH]c(=O)[nH]c2[nH]1` [uric acid], the “cell viability in ischemic conditions (LDH activity released in the medium)” value in assay [1] is “did not improve the cell viability”. Further, the resulting cerebral infarction with focal cerebral ischemia was “significantly reduces the resulting cerebral infarction”.
